Results taken from patent US8008074B2, “Compositions and methods for improving bone mass through modulation of receptors of PTH and fragments thereof” (The UAB Research Foundation, priority 2006, dated 2011).

Legend:
Type in all cases: cell-based
LRP6/Axin binding = test: Axin-LRP6 binding immunoprecipitation assay; conditions: without added GSK3β; data not shown
[1] = target: T1, TGFβRII/PTH1R interaction (Homo sapiens, UniProt P37173+Q03431); test: Co-immunoprecipitation of TGFβRII and PTH1R in 293 cells; conditions: cotransfected HEK293 cells; 10% FBS medium; PTH stimulation
T1 construct: The 293T cells endogenously expressed TGFβRII; endogenous in cells; host or cells: 293T
Protocol: Human embryonic kidney 293T cells in DMEM with 10% serum were treated with vehicle (water), TGF-β (2 ng/ml), or PTH (1-34) (50 nM) for 24 hours. The 293T cells endogenously expressed TGFβRII. The cells were cultured in DMEM with 10% serum and were split at 30%-40% confluent.
Immunoprecipitation assays were performed as described previously (Shi et al., 2004, J. Cell. Biol. 164:291-300). TGFβRII was immunoprecipitated from the cell extracts using anti-TGFβRII antibody (Santa Cruz Biotechnology, Inc.; 1:250 dilution), and the immunocomplex was detected by Western blotting with an antibody specific for PTH1R (Santa Cruz Biotechnology, Inc.; 1:200 dilution) to detect PTH1R protein. […] Furthermore, the interaction of PTH1R with TGFβRII can be in the form of monomers or dimers.
Next, the interaction was examined using a biochemical approach. PTH1R-HA was contransfected in HEK293 cells with Flag-TβRII. The cell lysate was subjected to HA immunoprecipitation, and associated TβRII was immunoblotted with anti-Flag antibody. TβRII specifically coprecipitated with PTH1R (FIG. 11) in 10% FBS medium, and the interaction was enhanced by PTH stimulation, whereas the kinase-dead mutant of TβRII lost the interaction with PTH1R (data not shown) even with treatment of PTH. The interaction of endogenous PTH1R and TβRII was also examined. […]

TGFβRII = target: T2, TGFβRII (Homo sapiens, UniProt P37173+Q03431); test: TGFβRII internalization in HEK293-PTH1R cells; conditions: stimulated with PTH for 30 minutes; 90% before stimulation
T2 construct: expressed in transfected cells; host or cells: HEK293-PTH1R (HEK293 stably expressing HA-PTH1R)
Protocol: TGFβRII tagged with Flag epitope was expressed in HEK293 cells that were expressing PTH1R or not, and the transfected cells were treated with PTH or control.
In particular, TGFβ1 treatment increases the number of cell membrane PTH1R. Therefore, the potential functional relationship of PTH with TGFβRII was examined. TGFβRII tagged with Flag epitope was transiently expressed in embryonic kidney 293 (HEK293) cells or HEK293 cells stably expressing PTH1R with HA (HEK293-PTH1R). In the absence of PTH, TGFβRII was present predominantly at the cell surface, with a few puncta in the cytosol (data not shown). […] To visualize the effect of PTH to the TβRII, a red fluorescent PTH (1-34) was synthesized in which the TMR fluorophore was attached to the side chain of the lysine residue at position 13 in PTH (1-34) (PTH^TMR).
To quantitate these observations, the cells were fixed at various time points and classified as three types: (1) TGFβRII is dominantly present at the cell surface, (2) TGFβRII locates to both the cell surface and vesicles in the cytosol, and (3) TGFβRII mainly localizes to the cytosol as vesicles. Before stimulation with PTH, TGFβRII was present at the cell surface in 90% of the cells. […] From 10 to 30 minutes after stimulation with PTH (1-34), cell-surface TβRII levels were reduced, indicative of receptor clearance from the cell surface membrane (FIG. 10B). […]

TGFβ/Smad signaling = TGFβ/Smad signaling after PTH pretreatment
Protocol: Panel B is a graph showing the decrease in activity from the SBE-luciferase reporter in the presence of PTH and PTH1R.
It has been reported that TGFβ-induced endocytosis of TGFβ/TβRII is mediated by Sara endosome. The response of TβRII to PTH was analyzed to determine whether it is the same as to TGFβ. […] The observation was confirmed by TGFβ-induced interaction between Smad2 and Smad4.

LRP6 [2] = target: T3, LRP6 (Homo sapiens, UniProt O75581); test: LRP6 phosphorylation at the PPPSP motif (Western blot); conditions: without added GSK3β; data not shown
T3 construct: The cell lysates were immunoprecipitated for endogenous LRP6; endogenous in cells; host or cells: UMR-106
Protocol: (§1) UMR-106 cells were treated with either PTH or Wnt-3a. The cell lysates were immunoprecipitated for endogenous LRP6, and the precipitated immunocomplexes were detected by Western blotting with an antibody that specifically recognizes the phosphorylated PPPSP motifs (aa, 1490) (Tamai et al., 2004). […] To further confirm the role of PTH in inducing phosphorylation of LRP5 and LRP6 individually, HEK293 cells were transfected with HA-tagged LRP5, and the phosphorylated LRP5 was detected by Western blotting of the anti-HA immunoprecipitates with Ab1490.
(§2) If the observation is true, then the phosphorylated PPPSP motif will serve as an Axin docking site.

LRP6 [3] = target: T4, LRP6 (Rattus norvegicus, UniProt A0A0G2K0H3); test: as above; conditions: UMR-106 cells, endogenous LRP6; data not shown
T4 construct: The cell lysates were immunoprecipitated for endogenous LRP6; endogenous in cells; host or cells: UMR-106
Protocol: as §1, §2

PTH1R/LRP6 complex = PTH1R/LRP6 complex (Homo sapiens, UniProt Q03431)
β-catenin = β-catenin protein levels in HEK293 cells; conditions: different concentrations and time points
Protocol: In parallel, proteins from cytosolic and nuclear fractions were isolated from the UMR 106 cells after a 30 minute treatment with control medium, Wnt-3a conditioned medium, or 5×10^−7 M PTH (1-84). The proteins were transferred to a blotting membrane, and the immunoblots were stained with an anti-β-catenin antibody or antibody to a control protein (α-tubulin or histone). […] Moreover, cytosolic and nuclear β-catenin protein levels also were examined in embryonic kidney epithelial cells (HEK293) that were treated with different concentrations of PTH and harvested at different time points.

LRP5/Axin binding = test: Axin-LRP5 binding immunoprecipitation; conditions: significantly induced at 30 minutes; data not shown
Source text: as §2
GSK3β is involved in PTH-stimulated LRP6 phosphorylation at its PPPSP motifs. However, the phosphorylation of LRP5 by PTH was very strong and seems GSK3β-unrelated. Since LRP6N, the extracellular domain with transmembrane region, functions as dominant-negative, we examined whether it inhibits PTH-induced Axin binding with LRP5/6.

T3 sequence (O75581 20-1613): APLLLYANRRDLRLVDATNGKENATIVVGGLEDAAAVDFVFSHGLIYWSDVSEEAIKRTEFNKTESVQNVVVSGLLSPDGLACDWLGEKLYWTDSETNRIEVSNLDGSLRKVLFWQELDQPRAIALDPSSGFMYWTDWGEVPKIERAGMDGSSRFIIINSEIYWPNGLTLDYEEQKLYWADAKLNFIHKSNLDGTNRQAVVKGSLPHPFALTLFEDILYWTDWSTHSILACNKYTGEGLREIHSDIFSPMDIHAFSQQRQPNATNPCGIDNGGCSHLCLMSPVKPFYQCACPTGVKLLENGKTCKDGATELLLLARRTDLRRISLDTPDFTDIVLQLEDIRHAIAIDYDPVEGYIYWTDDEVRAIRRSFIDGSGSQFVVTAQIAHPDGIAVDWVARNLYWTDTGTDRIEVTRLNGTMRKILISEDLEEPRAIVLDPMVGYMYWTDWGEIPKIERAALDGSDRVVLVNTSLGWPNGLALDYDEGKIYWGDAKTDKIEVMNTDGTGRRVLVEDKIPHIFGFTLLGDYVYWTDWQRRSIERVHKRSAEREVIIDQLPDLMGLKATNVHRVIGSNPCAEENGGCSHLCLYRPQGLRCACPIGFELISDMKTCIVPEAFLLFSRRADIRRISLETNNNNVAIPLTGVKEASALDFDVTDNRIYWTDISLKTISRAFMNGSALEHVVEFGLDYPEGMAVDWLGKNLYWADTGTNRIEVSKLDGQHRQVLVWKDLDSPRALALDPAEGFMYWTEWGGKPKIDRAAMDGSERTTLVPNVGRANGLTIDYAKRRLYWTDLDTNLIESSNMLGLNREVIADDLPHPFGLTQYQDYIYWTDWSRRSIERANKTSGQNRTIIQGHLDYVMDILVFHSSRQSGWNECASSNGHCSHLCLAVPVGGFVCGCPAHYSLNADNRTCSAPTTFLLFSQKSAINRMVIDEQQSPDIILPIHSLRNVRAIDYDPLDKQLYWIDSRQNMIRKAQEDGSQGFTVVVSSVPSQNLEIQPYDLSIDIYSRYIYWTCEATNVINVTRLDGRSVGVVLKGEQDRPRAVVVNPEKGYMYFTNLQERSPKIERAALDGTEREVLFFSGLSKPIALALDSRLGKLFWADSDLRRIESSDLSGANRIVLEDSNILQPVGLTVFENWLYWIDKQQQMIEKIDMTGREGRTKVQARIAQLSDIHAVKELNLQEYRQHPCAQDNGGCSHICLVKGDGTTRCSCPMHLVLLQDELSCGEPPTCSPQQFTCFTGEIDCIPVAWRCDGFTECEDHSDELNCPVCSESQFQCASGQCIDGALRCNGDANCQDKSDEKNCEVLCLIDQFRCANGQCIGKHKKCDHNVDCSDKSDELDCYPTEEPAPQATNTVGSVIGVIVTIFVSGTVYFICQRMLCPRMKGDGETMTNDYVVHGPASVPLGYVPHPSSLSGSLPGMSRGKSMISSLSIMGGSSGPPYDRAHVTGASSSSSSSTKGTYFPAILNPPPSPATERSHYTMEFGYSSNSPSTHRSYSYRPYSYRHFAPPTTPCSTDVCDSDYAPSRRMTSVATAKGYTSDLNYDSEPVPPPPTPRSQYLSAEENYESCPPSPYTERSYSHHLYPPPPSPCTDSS
T2 sequence (P37173 23-567): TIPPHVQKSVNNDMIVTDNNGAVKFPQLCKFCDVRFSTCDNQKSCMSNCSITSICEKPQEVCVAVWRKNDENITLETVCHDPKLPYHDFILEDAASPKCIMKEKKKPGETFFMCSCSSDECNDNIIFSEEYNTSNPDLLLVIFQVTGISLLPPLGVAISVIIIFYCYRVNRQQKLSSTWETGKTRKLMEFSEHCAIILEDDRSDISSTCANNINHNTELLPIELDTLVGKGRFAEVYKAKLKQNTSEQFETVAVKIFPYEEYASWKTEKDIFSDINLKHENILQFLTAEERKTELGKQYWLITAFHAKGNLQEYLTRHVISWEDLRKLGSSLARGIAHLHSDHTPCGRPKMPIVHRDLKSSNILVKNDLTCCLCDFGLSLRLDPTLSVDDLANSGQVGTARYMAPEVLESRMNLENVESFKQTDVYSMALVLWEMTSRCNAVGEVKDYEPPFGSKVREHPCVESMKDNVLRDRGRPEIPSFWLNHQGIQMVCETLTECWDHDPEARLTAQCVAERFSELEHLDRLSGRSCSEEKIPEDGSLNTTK
T2 sequence (Q03431 27-593): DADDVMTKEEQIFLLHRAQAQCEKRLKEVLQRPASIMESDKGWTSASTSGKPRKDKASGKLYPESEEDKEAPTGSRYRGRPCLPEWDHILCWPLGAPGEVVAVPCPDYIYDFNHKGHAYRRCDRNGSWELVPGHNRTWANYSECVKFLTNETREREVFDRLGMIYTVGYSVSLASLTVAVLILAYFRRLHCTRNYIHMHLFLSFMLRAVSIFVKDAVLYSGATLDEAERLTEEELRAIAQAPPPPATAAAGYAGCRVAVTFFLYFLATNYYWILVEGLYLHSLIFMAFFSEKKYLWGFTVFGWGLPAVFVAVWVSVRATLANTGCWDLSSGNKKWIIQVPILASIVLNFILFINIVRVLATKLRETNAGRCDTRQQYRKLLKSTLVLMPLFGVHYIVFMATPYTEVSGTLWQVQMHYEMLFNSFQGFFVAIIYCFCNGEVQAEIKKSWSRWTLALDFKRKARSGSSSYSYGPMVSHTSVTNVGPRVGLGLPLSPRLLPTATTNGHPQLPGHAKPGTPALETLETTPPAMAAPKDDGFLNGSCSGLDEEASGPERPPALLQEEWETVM
T1 sequence (Q03431 27-593): as above
T1 sequence (P37173 23-567): as the sequence (P37173 23-567) above
T4 sequence (A0A0G2K0H3 20-1611): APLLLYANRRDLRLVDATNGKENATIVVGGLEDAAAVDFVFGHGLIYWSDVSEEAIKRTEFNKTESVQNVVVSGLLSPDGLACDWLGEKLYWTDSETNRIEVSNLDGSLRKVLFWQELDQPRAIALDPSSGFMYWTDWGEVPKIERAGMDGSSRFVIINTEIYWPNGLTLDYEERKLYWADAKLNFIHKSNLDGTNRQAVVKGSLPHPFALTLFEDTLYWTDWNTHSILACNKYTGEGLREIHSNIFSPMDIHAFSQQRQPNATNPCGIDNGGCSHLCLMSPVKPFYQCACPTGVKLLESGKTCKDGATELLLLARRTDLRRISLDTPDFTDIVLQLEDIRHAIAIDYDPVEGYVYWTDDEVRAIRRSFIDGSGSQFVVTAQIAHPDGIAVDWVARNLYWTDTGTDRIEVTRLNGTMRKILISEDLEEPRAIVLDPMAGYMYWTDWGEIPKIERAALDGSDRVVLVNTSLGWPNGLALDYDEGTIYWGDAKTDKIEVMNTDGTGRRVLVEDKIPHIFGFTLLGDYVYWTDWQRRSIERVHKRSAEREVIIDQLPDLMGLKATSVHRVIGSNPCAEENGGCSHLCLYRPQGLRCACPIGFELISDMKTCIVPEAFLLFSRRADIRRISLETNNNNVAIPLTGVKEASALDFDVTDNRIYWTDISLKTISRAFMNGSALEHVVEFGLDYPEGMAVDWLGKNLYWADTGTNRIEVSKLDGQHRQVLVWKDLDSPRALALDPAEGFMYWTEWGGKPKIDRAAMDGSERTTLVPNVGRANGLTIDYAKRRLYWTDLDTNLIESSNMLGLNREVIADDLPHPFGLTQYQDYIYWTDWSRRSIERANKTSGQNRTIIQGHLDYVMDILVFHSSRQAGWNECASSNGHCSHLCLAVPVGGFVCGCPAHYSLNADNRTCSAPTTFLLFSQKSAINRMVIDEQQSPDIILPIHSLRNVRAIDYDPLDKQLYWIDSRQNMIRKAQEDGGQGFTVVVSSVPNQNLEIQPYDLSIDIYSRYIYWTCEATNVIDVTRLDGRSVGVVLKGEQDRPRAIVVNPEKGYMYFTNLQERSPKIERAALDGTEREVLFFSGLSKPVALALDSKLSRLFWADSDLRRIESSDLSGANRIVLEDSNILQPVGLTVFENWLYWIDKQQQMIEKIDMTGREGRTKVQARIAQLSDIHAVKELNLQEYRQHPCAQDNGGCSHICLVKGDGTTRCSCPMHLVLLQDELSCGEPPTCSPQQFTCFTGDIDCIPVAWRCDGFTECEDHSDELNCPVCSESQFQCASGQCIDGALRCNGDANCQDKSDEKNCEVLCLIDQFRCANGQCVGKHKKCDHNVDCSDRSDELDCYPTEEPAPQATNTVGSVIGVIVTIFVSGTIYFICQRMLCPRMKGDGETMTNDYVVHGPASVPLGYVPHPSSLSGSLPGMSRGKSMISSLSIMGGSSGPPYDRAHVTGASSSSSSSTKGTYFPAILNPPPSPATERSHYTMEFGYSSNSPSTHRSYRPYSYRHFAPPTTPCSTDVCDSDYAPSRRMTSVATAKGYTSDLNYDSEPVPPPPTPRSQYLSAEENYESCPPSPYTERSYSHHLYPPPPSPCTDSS

In the case of “PTH: Parathyroid hormone ligand, form not stated at the place; figure legends give PTH (1-84) or PTH (1-34)”, the “Axin/LRP6 binding, PTH alone” value (LRP6/Axin binding) is reported as “undetectable”, the “interaction of PTH1R-HA with Flag-TβRII” value [1] is reported as “enhanced” and the “cells exhibiting cell-surface localization of TGFβRII” value (TGFβRII) is reported as “less than 10%”. The “phosphorylation of Smad2 by TGFβ after PTH pretreatment” value (TGFβ/Smad signaling; C2C12 cells pretreated with PTH) was “largely inhibited”, the “inhibition by PTH1R of TGFβ activation of SBE luciferase reporter” value (TGFβ/Smad signaling; cells expressing PTH1R) was “enhanced the inhibition” and the “TGFβ-induced interaction between Smad2 and Smad4” value (TGFβ/Smad signaling; pretreatment with PTH) was “inhibits the interaction”. The “phosphorylation of LRP6, PTH alone” value (LRP6 [2]) was “much weaker stimulation”, the “LRP6 phosphorylation at the PPPSP motif” value (LRP6 [3]) was “rapidly induced LRP6 phosphorylation at the PPPSP motif” and the “enhancement of interaction of PTH1R with LRP6N or LRP6” value (PTH1R/LRP6 complex) was “did not enhance the interaction of PTH1R with LRP6N or LRP6”. The “LRP6-associated PTH ligand (anti-VSVG immunoprecipitates, anti-PTH blot)” value (PTH1R/LRP6 complex; HEK 293 cells, 5×10^−7 M PTH (1-84) for 1 hour) was “immunoprecipitated only when both LRP6 and PTH1R were cotransfected”, the “cytosolic and nuclear β-catenin protein levels” value (β-catenin) was “stimulates protein levels of β-catenin in both the cytoplasm and the nucleus in a concentration and time dependent manner” and the “binding of Axin to LRP5” value (LRP5/Axin binding) was “induced binding of Axin to LRP5”.
